Measurements: patent US20130158070A1, “CONJUGATES OF POLYUNSATURATED FATTY ACIDS AND AMINE-CONTAINING COMPOUNDS AND USES THEREOF” (priority 2010, published 2013)
Several values for one entry are separate records, joined by “and”; a condition that tells them apart may be missing. Equal values may be shown once.

How the values were obtained:
hERG channels = target: T1, hERG channels (Homo sapiens, UniProt Q12809); test: hERG channels expressed in Xenopus oocytes, two-electrode voltage clamp; assay type: cell-based; set-up: initial current / final current / remaining current / avarage (remaining current): unit not given here; settings: for final current: at −130 mV; for final current / remaining current / initial current: individual oocytes; for avarage (remaining current): 5 oocytes; for initial current: at −130 mV after pre-pulse to +40 mV
T1 construct: expressed in transfected cells; host or cells: Xenopus laevis oocytes injected with hERG cRNA (pSP64 vector, SP6 promoter)
Description: The sensitivity of hERG channels to two compounds, MWL001 also termed in the application as MW001 or MWL-001 and MWL002 also termed MW002 or MWL-002, was tested using the Xenopus oocyte expression system and the two-electrode voltage clamp technique. Activity of the compounds was tested at a concentration of 15 μM both from the external and from the internal sides of the membrane.
Clones: hERG gene (gi|26051269) was cloned within pSP64 expression vector (Promega) downstream to a SP6 RNA polymerase promoter. cRNA was prepared following digestion with EcoR I.
Electrophysiology: Xenopus laevis oocytes were isolated, defolliculated and maintained at 17° C. in ND-91 solution (in mM): 91 NaCl, 2 KCl, 1.8 CaCl2, 1 MgCl2, and 5 HEPES, pH 7.5, supplemented with 100 U/ml penicillin, 100 μg/ml streptomycin and 50 μg/ml gentamycin. Oocytes were injected with 20 or 40 nl, containing 7-14 ng of hERG cRNA. Whole-cell currents were measured 2-3 days after injection by the two-electrode voltage clamp technique (TEVC), using a GeneClamp 500B amplifier (Axon Instruments). Data were filtered at 2 kHz and sampled at 5 kHz with Clampex 9.0 software (Axon Instruments). The pipette was filled with 3M KCl and the bath solution contained (in mM): 4 KCl, 96 NaCl, 1 MgCl2, 0.3 CaCl2, 5 HEPES, pH 7.4. For external application of the compounds, stock solutions of either MWL001 or MWL002 were dissolved in the bath solution to a final concentration of 15 μM. During the experiments, bath solution exchange rate was about 2 ml/minutes. At this rate, more than 95% of the bath solution is replaced within 30 seconds. For internal blockade measurements, oocytes were injected with 46 nl of diluted (0.274 mM) compound solutions to achieve a final concentration within the oocyte of 15 μM.
Internal application: Compounds were injected into the oocyte to achieve a final concentration of 15 μM. Injection was made during current measurements and results were collected before and for 5 minutes after the injection. Current levels were determined in 4 seconds intervals at −130 mV, following a pre-pulse to +40 mV (see, Table 4 and FIG. 3).
External application: MWL compounds were applied at 15 μM concentration in the bath solution and current levels were determined in 4 seconds intervals at −130 mV, following a pre-pulse to +40 mV, for 15 minutes (see, Table 4). In addition, measurements were made to determine channel behavior throughout the entire physiological voltage range.
Table 4 presents the data obtained for the effect of MWL compounds on expressed hERG channels in individual oocytes which were either incubated (external) or injected (internal) with MWL compounds. Currents were monitored for 15 or 5 minutes, respectively.

COX-2 = target: T2, COX-2 (Homo sapiens, UniProt P35354); test: COX-2 inhibition, enzyme immunoassay (EIA); assay type: biochemical; settings: ratio of COX-1 IC50 to COX-2 IC50
T2 sequence (P35354 18-604): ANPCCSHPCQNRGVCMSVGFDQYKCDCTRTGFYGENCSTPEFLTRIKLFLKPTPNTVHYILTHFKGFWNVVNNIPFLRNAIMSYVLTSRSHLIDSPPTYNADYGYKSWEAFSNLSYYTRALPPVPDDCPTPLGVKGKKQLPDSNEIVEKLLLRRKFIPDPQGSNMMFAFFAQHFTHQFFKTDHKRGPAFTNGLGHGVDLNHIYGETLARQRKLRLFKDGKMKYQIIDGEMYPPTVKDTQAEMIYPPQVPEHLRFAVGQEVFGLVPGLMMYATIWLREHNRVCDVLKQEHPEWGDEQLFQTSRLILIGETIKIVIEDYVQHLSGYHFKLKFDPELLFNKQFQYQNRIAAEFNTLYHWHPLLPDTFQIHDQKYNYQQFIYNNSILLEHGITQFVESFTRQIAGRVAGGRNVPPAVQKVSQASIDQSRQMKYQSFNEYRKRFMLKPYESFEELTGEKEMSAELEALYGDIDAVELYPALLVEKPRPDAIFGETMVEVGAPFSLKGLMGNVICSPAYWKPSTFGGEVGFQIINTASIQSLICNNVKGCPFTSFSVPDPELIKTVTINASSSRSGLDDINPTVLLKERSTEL
Description: Exemplary conjugates as described herein were tested in vitro for inhibition of COX-1 and COX-2, using an enzyme immunoassay (EIA), as follows.
Cyclooxygenase catalyzes the first step in the biosynthesis of arachidonic acid (AA) to PGH2. PGF2α, produced from PGH2 by reduction with stannous chloride, is measured by enzyme immunoassay (ACETM competitive EIA).
Stock solutions of test compounds were dissolved in a minimum volume of DMSO. Briefly, to a series of supplied reaction buffer solutions (960 μl, 0.1M Tris-HCl pH 8.0 containing 5 mM EDTA and 2 mM phenol) with either COX-1 or COX-2 (10 μl) enzyme in the presence of heme (10 μl) were added 10 μl of various concentrations of test drug solutions (0.01, 0.1, 1, 10, 50, and 100 μM in a final volume of 1 ml). These solutions were incubated for a period of 5 minutes at 37° C. after which 10 μL of AA (100 μM) solution were added and the COX reaction was stopped by the addition of 50 μl of 1M HCl after 2 minutes. PGF2α, produced from PGH2 by reduction with stannous chloride was measured by enzyme immunoassay.
This assay is based on the competition between PGs and a PG-acetylcholinesterase conjugate (PG tracer) for a limited amount of PG antiserum. The amount of PG tracer that is able to bind to the PG antiserum is inversely proportional to the concentration of PGs in the wells since the concentration of PG tracer is held constant while the concentration of PGs varies. The concentration of the test compound causing 50% inhibition (IC50, μM) was calculated from the concentration-inhibition response curve (duplicate determinations).

[1] = external application 15 μM in bath, monitored 15 minutes
[2] = external application 15 μM, 15 minutes
[3] = external application, before exposure
[4] = internal application (injected) 15 μM, 5 minutes
[5] = internal application (injected) 15 μM, monitored 5 minutes
[6] = internal application, before injection

T1 sequence (Q12809 whole entry): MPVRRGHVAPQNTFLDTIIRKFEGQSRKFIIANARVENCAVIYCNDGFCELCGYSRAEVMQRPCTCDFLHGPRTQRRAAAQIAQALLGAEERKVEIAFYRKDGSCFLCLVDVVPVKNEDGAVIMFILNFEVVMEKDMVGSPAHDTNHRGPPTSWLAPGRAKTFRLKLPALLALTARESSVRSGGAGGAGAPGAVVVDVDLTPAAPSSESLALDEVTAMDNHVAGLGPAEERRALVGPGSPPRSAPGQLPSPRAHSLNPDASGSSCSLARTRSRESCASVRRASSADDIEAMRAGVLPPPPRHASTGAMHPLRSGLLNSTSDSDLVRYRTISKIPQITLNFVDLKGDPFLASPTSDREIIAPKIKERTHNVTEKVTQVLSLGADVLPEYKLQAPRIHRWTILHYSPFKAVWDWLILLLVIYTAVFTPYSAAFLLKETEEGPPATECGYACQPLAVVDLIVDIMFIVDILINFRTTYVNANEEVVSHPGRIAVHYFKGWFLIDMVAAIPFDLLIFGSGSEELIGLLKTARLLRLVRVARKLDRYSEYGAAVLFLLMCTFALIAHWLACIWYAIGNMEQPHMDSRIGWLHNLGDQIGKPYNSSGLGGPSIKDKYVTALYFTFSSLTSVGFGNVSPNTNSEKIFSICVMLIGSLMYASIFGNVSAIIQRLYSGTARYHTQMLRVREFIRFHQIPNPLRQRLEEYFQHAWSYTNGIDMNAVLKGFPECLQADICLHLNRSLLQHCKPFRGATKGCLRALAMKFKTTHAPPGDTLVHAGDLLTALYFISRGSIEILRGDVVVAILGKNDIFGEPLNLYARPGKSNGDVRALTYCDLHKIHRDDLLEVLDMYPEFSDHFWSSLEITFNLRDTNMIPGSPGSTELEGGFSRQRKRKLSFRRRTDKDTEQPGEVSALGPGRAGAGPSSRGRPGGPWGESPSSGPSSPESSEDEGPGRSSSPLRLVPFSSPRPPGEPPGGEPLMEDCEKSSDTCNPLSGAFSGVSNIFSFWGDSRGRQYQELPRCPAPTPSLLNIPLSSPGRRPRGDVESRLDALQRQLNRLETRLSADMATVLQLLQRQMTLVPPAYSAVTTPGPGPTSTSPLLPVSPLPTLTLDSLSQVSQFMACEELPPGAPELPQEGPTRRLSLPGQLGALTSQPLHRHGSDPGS

Row | Structure (SMILES) | final current (hERG channels; [1]) | avarage (remaining current) (hERG channels; [2]) | remaining current (hERG channels; [2]) | initial current (hERG channels; [3]) | avarage (remaining current) (hERG channels; [4]) | remaining current (hERG channels; [4]) | final current (hERG channels; [5]) | initial current (hERG channels; [6]) | Ratio (COX ½) (COX-2) | effect on hERG channel currents (hERG channels; 15 μM, internal and external exposure)
1 | CCC=CCC=CCC=CCC=CCC=CCC=CCCC(=O)N1CC(O)CC1C(=O)O (stereo not shown) [MWL001] | −12.8 and −15.5 and −15.8 and −10.8 and −26.0 | 95.7 | 100.8 and 91.2 and 98.1 and 100.0 and 88.6 | −12.7 and −17.0 and −16.1 and −10.8 and −29.3 | 101.6 | 95.6 and 101.8 and 112.3 and 100.0 and 98.4 | −6.5 and −11.1 and −15.5 and −9.5 and −18.5 | −6.8 and −10.9 and −13.8 and −9.5 and −18.8 | 464.11 | 
2 | CC/C=C\C/C=C\C/C=C\C/C=C\C/C=C\C/C=C\CCC(=O)NCCS(=O)(=O)O [MWL002, N-docosa-4,7,10,13,16,19-hexaenoyl-taurine] | −7.1 and −5.0 and −7.2 and −18.0 and −9.0 | 108.2 | 91.6 and 109.9 and 120.0 and 102.9 and 116.9 | −7.8 and −4.6 and −6.0 and −17.5 and −7.7 | 106.9 | 109.6 and 103.2 and 101.8 and 107.5 and 112.7 | −13.7 and −6.5 and −11.5 and −7.2 and −8.0 | −12.5 and −6.3 and −11.3 and −6.7 and −7.1 | 27.86 | no sensitivity
